Reference: patent publication US9623021B2, “Nuclear receptor binding agents” (GTX, Inc., priority 2007, dated 2017)

How the values were obtained:
[1] = target: ERα ligand binding domain (Homo sapiens (Human), UniProt P03372); experiment: Competitive [3H]-estradiol radioligand binding, ERα (Example 21)
ER-α = ER-α (Rattus norvegicus (Rat), UniProt P06211); experiment: Transient transfection and reporter gene assay, ER-α, HEK-293 cells (Example 22A); assay type: cell-based; conditions: ERE-LUC
Method: Human estrogen receptors (ER-α and ER-β) were cloned from prostate cDNA into a pCR3.1 plasmid vector backbone. PGC-1 was cloned into mammalian two hybrid vector pACT. ER-β H475 was mutated to alanine using site-directed mutagenesis. Sequencing was performed to determine the absence of any non specific mutations. SHP promoter (−572 to +10) (26) was cloned into pGL3 basic LUC reporter vector and human FXR was cloned into pCR3.1. HEK-293 cells were plated at 100,000 cells per well of a 24 well plate in […] (DMEM)+5% charcoal-stripped fetal bovine serum (csFBS). The cells were transfected using Lipofectamine (Invitrogen, Carlsbad, Calif.) with 0.25 μg ERE-LUC, 0.02 μg CMV-LUC (renilla luciferase) and 12.5 ng of rat ER-α or 25 ng rat ER-β. […] Luciferase assays were performed 48 hrs after transfection.
To determine if the selectivity in ER binding also translated into ER-β-selective activity, transient transactivation assays were performed in HEK-293 cells transfected with plasmids encoding ER-α or ER-β and ERE-LUC. The cells were treated with varying concentrations of the ligands and their EC50 values were determined.

[2] = test system: Ishikawa endometrial cells; experiment: Ishikawa growth assay (alkaline phosphatase); assay type: cell-based
Method: Ishikawa cells were plated at 15,000 cells/well in 24 well plates in DME:F12 (1:1)+5% csFBS w/o phenol red. The cells were maintained in this medium at 37° C. for 3 days. Medium was changed immediately prior to drug treatment for an additional 72 hrs. After 72 hrs, the cells were fixed with formalin and the amount of alkaline phosphatase (ALP) measured by para-nitrophenyl phosphate method.
This effect is one potential concern in the development of ER-α SERMs.

[3] = test system: high fat diet fed obese mice; experiment: High fat diet induced obesity model, treatment study (study 3); assay type: in vivo, C57BL6 male mice; conditions: high fat diet 6 weeks, then 30 mg/kg/day s.c.
Method: For the treatment obesity study (where the animals were fed with high fat diet for six weeks prior to beginning drug treatment for 18 weeks), MRI scans were performed at weeks 0, 6, 12, 18 and 24.
As the first two studies were designed to prevent obesity (i.e. animals were fed with a high fat diet and treated simultaneously), a subsequent study was conducted to evaluate the ability of 12u to affect body composition in mice that were already fed with the high fat diet and were obese. Mice were divided into three groups with one group fed with normal diet (control) and the other two groups fed with the high fat diet for 6 weeks. […] All the animals were maintained in their respective diets during the entire course of the study.

ovariectomized mice = experiment: Ovariectomy-induced obesity model (postmenopausal obesity); assay type: in vivo, female C57BL6 mice; conditions: OVX mice
Method: For the ovariectomy-induced obesity model, 6 week old female C57BL6 mice were sham operated or ovariectomized and the study was carried out for 9 weeks as indicated above.
Since it was shown that β-SERMs affected body composition in an animal model of high fat diet-induced obesity, they might also be effective in an animal model of postmenopausal obesity.

PPAR-α = PPAR-α transactivation (PPRE-LUC) in HEK-293 cells co-transfected with ER-β; assay type: cell-based; conditions: FIG. 12A right panel
Method: FIG. 12 depict the effect of ER-β ligand on PPAR-γ function through ligand binding domain (LBD). (A). HEK-293 cells were transfected with 0.25 μg PPRE-LUC, 5 ng CMV-renilla LUC and the indicated receptors (PPAR-γ and ER-β for the left panel and PPAR-α and ER-β for the right panel). The cells were treated 24 hrs after transfection with the indicated ligands and harvested 48 hrs after transfection and firefly luciferase activity was measured and normalized to renilla luciferase. (B). H475 in ER-β LBD is important for its function. H475 in ER-β LBD was mutated to alanine (A) using a site directed mutagenesis kit. Transactivation assay was performed as described in panel A in HEK-293 cells with a titration of ER-β ligands in wild type or ER-β H475A. (C). […] The cells were treated 24 hrs after transfection with the indicated ligands and harvested 48 hrs after transfection and firefly luciferase activity was measured and normalized to renilla luciferase. […] The cells were treated 24 hrs after transfection with the indicated ligands and harvested 48 hrs after transfection and firefly luciferase activity was measured and normalized to renilla luciferase. […] The cells were treated 24 hrs after transfection with the indicated ligands and harvested 48 hrs after transfection and firefly luciferase activity was measured and normalized to renilla luciferase. […]

ERα ligand binding domain, sequence (P03372 whole entry, looked up, species assumed, the tested form may be a part): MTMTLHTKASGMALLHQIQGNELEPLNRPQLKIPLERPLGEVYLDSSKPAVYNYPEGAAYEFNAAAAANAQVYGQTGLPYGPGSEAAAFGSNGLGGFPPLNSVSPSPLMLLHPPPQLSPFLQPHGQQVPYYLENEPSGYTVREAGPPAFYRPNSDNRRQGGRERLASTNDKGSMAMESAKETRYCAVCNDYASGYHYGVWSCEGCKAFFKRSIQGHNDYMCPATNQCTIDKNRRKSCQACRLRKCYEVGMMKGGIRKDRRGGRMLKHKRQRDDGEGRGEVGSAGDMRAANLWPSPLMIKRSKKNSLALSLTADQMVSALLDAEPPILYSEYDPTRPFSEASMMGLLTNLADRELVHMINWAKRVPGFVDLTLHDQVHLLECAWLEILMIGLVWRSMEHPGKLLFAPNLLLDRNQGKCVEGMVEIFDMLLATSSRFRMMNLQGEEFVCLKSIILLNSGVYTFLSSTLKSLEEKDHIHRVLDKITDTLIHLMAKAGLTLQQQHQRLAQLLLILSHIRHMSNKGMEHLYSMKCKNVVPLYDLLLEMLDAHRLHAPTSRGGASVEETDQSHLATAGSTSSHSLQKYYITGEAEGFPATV

`O=c1c2c(O)cc(O)cc2c(Br)cn1-c1ccc(O)cc1` [Compound 12u, 4-bromo-6,8-dihydroxy-2-(4-hydroxyphenyl)isoquinolin-1(2H)-one] was tested, and the Ki [1] was 0.032 µM, the “function at ER-α in transactivation” value (ER-α) was “agonists” and the Ishikawa cell proliferation ([2]; FIG. 3C) was “weakly induce”. For the same compound, the “concentration at which proliferation of Ishikawa cells was induced” value ([2]; highest concentration tested, ALP assay, 72 hrs) was 1 µM, the body weight ([3]; FIG. 10A) was “prevented further gains in body weight” and the “body fat increase (MRI)” value ([3]; FIG. 10B) was “reduced”. For the same compound, the body weight gain (ovariectomized mice; 9 weeks, FIG. 11A) was “did not inhibit body weight gain”, the feed consumption (ovariectomized mice; FIG. 11B) was “increased the feed consumption” and the “fat mass (MRI)” value (ovariectomized mice; FIG. 11C left panel) was “completely prevented the increase in fat mass”. The “lean mass (MRI)” value (ovariectomized mice; FIG. 11C right panel) was “significantly increased lean mass”, the WAT weight (ovariectomized mice; FIG. 11D) was “completely inhibited the WAT accrued due to OVX” and the uterine weight (ovariectomized mice; FIG. 11D) was “without affecting uterine weight”. For the same compound, the “WY14643 induced PPAR-α transactivation” value (PPAR-α) was “did not affect”.
